Experimental findings from US20240368178A1, “IMIDAZOCYCLIC COMPOUND AND APPLICATION THEREOF” (DONGBAO PURPLE STAR (HANGZHOU) BIOPHARMACEUTICAL CO., LTD., priority 2021, published 2024) are described below.

Each structure is given as a SMILES string. Where only a bound is given, the exact number is not on record here.

As usually defined, the EC50 is the concentration giving half of the maximal effect.

The test system of one series is monkey liver cells. The series is described as follows: HMS CLint (liver) hepatocyte metabolic stability, cynomolgus monkey. Type of series: in vitro ADME. The settings on record: cynomolgus monkey hepatocytes. How it is done: Experimental purpose: to test the metabolic stability of the test sample in human and rat liver cells.
• (1) test compound (10 mM), reference substance: 7-ethoxycoumarin (30 mM), 7-hydroxycoumarin (reference substance, 30 mM); • mouse hepatocytes with cell viability of 73.8%, supplier Cat No.: BioreclamationlVTM005052; • rat hepatocytes with cell viability of 78.3%, supplier Cat No.: BioreclamationlVTM00005-T; • canine hepatocytes with cell viability of 80.2%, supplier Cat No.: BioreclamationlVTM00205; • monkey liver cells with cell viability of 80.9%, supplier Cat No.: RILD HP—SXH-02M; • human hepatocytes with cell viability of 94.6%, supplier Cat No.: Bioreclamation IVTX008001. • (2) Buffer system:
Thawing medium: Williams' medium E containing 5% fetal bovine serum, 30% Percoll solution, and other auxiliary materials.
Incubation medium: Williams' medium E (without phenol red) containing 2 mM L-glutamine and 25 mM 4-(2-hydroxyethyl)-1-piperazineethanesulfonic acid.
Termination solution: acetonitrile containing 200 ng/mL tolbutamide and labetalol as internal standard. […]
The residual rates of the test compound and the control compound were determined using the following formula: […]
The elimination rate constant (k) of the test compound and the control compound in hepatocytes was calculated by plotting the logarithm of the residual rate against time. […]

In a further series the target is Human-GLP-1 receptor (Homo sapiens (Human), UniProt P43220). The experiment in a line: In vitro cell activity assay (cAMP, HEK293 GLP-1 cells). Type of series: cell-based. The settings on record: cAMP detection. The procedure: Experimental Example 1: In Vitro Cell Activity Assay
The host cell HEK293 for GLP-1 was constructed by WuXi AppTec (Shanghai) Co., Ltd.
cAMP Detection Kit, Cisbio (Cat #62AM4PEJ); 1M HEPES, Invitrogen (Cat #15630-106); 1×HBSS, Invitrogen (Cat #14025); BSA, Sigma (Cat #B2064); IBMX, Sigma (Cat #I5879); Exenatide, Hao Yuan (HY-13443A).
The compounds were prepared into a working solution with a concentration of 30 μM using DMSO. In this assay, each sample was used in an amount of 5 μL.
• 24.5 mL of Hanks Buffer Saline Solution (HBSS), final concentration: lx; • 125 μL of HEPES 1M, final concentration: 5 mM; • 333 μL of 7.5% BSA Solution, final concentration: 0.1%; • 25 μL of IBMX 500 mmol/L, final concentration: 0.5 mmol/L.
Preparation of cAMP assay reagent: 250 μL of cAMP-D2 and 250 μL of anti-cAMP cryptate reagent were added to 4 mL of lysis buffer and mixed gently.
The compound to be tested was diluted 3-fold at 10 points with a starting concentration of 30 μM, and the dilution was completed using Bravo.
Exenatide, used as a control compound, was diluted 3-fold at 10 points with a starting concentration of 500 nM, and the dilution was completed using Bravo. […]
• 1) A GLP-1 cell cryopreservation tube was rapidly thawed in a 37° C. water bath. • 2) The cell suspension was transferred to a 15 mL Transfer centrifuge tube and gently rinsed with 10 mL of HBSS. • 3) The centrifuge tube was centrifuged at 1000 rpm for 1 minute at room temperature. • 4) The supernatant was discarded. • 5) The cells at the bottom were gently dispersed, then rinsed with 10 mL of HBSS, centrifuged to sedimentation, and finally resuspended in the experimental buffer. • 6) The cell density and activity were measured using Vi-cell. • 7) The concentration of GLP-1 cells was diluted to 2.0*105/mL with the experimental buffer. • 8) […] of the diluted cell suspension was transferred to the OptiPlate-384 plate. • 9) The plate was incubated at room temperature for 30 minutes. […]
TopSeal-A was removed and the result was read in EnVision.

Human-GLP-1 receptor, sequence (P43220 24-463): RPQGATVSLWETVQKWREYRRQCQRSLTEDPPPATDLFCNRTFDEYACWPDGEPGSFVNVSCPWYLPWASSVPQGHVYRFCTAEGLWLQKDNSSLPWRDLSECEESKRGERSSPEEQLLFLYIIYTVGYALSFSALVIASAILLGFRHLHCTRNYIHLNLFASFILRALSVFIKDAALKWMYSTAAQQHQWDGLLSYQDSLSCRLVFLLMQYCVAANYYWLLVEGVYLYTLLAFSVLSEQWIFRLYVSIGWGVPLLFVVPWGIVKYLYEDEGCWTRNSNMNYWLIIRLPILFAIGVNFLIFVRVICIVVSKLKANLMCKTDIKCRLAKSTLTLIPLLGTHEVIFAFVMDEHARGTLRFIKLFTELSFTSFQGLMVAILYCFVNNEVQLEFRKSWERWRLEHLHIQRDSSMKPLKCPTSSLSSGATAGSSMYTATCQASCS

As for `C[C@]1(c2ccc(Cl)cn2)Oc2cccc(C3CCN(Cc4nc5sc(C(=O)O)cc5n4C[C@@H]4CCO4)CC3)c2O1` (single isomer, unassigned) [Compound 002], the “HMS Cynomolgus monkeys” value in the series with monkey liver cells is reported as <23.0 mL/min/kg. Besides, the EC50 at Human-GLP-1 receptor came to 0.88 nM.

In the case of `C[C@@]1(c2ccc(Cl)cn2)Oc2cccc(N3CCN(Cc4nc5sc(C(=O)O)cc5n4C[C@H]4CCO4)CC3)c2O1` [Compound 003], the “HMS Cynomolgus monkeys” value in the series on monkey liver cells is given as 41.6 mL/min/kg. On Human-GLP-1 receptor, this molecule had a concentration for a half-maximal effect (EC50) of 0.51 nM.
